Assay results taken from US20210228590A1, “TREATING INFLUENZA USING SUBSTITUTED POLYCYCLIC PYRIDONE DERIVATIVES AND PRODRUGS THEREOF” (priority 2018, published 2021).

Tests used:
[1] = in vivo
[2] = system: influenza A virus A/PR/8/34; assay: Mouse model for delayed treatment, lethal infection: survival and body weight; format: in vivo, BALB/c mice
[3] = system: influenza A virus A/PR/8/34; assay: Mouse model for delayed treatment: virus titers in lungs; format: in vivo, BALB/c mice; conditions: for virus in lungs: days 8 and 10 post infection, treatment from 72 hours, limit of detection 1.50 log10 TCID50/ml
[4] = rat, in vivo, po

CC(=O)Oc1c2n(ccc1=O)N([C@@H]1c3ccccc3SCc3c1ccc(F)c3F)[C@@H]1COCCN1C2=O [II-4]
BA(%) [1]: 20.0%

COC(=O)OCOc1c2n(ccc1=O)N([C@@H]1c3ccccc3SCc3c1ccc(F)c3F)[C@@H]1COCCN1C2=O [II-6, baloxavir marboxil]
survival ([2]; BXM 15 mg/kg orally twice daily for 5 days from 24, 48, or 72 hours post infection, observed to day 28): all mice treated with 1.5 and 15 mg/kg of BXM survived
survival time versus vehicle-treated group ([2]; BXM from 24, 48, 72, and 96 hours post infection, P<0.01 or P<0.001): Significant differences in survival time
body weight change versus vehicle-treated group ([2]; BXM from 24, 48, 72, or 96 hours post infection): significantly less reduction of body weight compared with the vehicle-treated group
body weight loss versus OSP-treated group ([2]; BXM from 24, 48, 72 or 96 hour post infection, on indicated days): significantly less body weight loss than did the OSP-treated group
survival time versus OSP-treated group ([2]; BXM given from 72 and 96 hours post infection, OSP 5 mg/kg): significantly prolonged compared with that in OSP-treated group
virus titers in lung versus vehicle-treated group ([3]; BXM 1.5 and 15 mg/kg for 5 days from 72 hours post infection, days 4 and 6 post infection): significantly reduced compared with those in the vehicle-treated group
virus titer in lung versus OSP-treated group ([3]; BXM 1.5 and 15 mg/kg from 72 hours post infection, days 4 and 6 post infection): significantly lower than that in the group treated with 5 mg/kg of OSP
virus in lungs [3]: No virus was detected
concentration of Compound II-6 in plasma samples [4]: a determination limit or less

O=C1c2c(O)c(=O)ccn2N([C@@H]2c3ccccc3SCc3c2ccc(F)c3F)[C@@H]2COCCN12 [III-2, baloxavir acid]
BA(%) [1]: 4.2%

CCOC(=O)C1=C[C@@H](OC(CC)CC)[C@H](NC(C)=O)[C@@H](N)C1 [OSP, Oseltamivir phosphate, reference compound]
survival time versus vehicle-treated group ([2]; OSP 5 mg/kg twice daily for 5 days from 24 or 48 hours post infection): survived for a significant longer period than the vehicle-treated group
protection level (survival) ([2]; OSP 5 mg/kg twice daily for 5 days from 72 or 96 hours post infection): protection level was decreased
body weight loss versus control group ([2]; OSP from 24 and 48 hours post infection): Significant inhibitions in body weight loss
body weight loss versus vehicle-treated group ([2]; OSP from 72 and 96 hours post infection): body weight loss comparable to the vehicle-treated group
virus titers in lung versus vehicle-treated group ([3]; OSP 5 mg/kg from 72 hours post infection, day 4 post infection): Significant reduction in virus titers
virus in lungs [3]: No virus was detected
